Laboratory results from ChEMBL document CHEMBL1136353, “Synthesis of novel fluorescent probes for the molecular chaperone Hsp90” (Bioorg Med Chem Lett, 2003).

Target: Heat shock protein HSP90 (Homo sapiens, UniProt P07900+P08238)
Assay: Binding affinity towards Heat shock protein HSP 90-alpha inhibitor
Format: protein assay

Kds	Structure (SMILES)
33.8 nM	CO[C@H]1/C=C\C=C(/C)C(=O)NC2=CC(=O)C(NCCNC(=O)CCC3=N/C(=C\c4c(C)cc(C)n4B(F)F)C=C3)=C(C[C@@H](C)C[C@H](OC)[C@@H](O)[C@@H](C)/C=C(\C)[C@@H]1OC(N)=O)C2=O
23.3 nM	CO[C@H]1/C=C\C=C(/C)C(=O)NC2=CC(=O)C(NCCCCCCO/C(S)=N\c3ccc(-c4c5ccc(=O)cc-5oc5cc(O)ccc45)c(C(=O)O)c3)=C(C[C@@H](C)C[C@H](OC)[C@@H](O)[C@@H](C)/C=C(\C)[C@@H]1OC(N)=O)C2=O
